Where “and” joins values, the source holds several entries; their conditions need not be identical. Identical values can stand only once. Like-named read-outs stand apart in the source and are kept apart here.
Assay: Part 1 PK study: single oral 200 mg dose, fed (high-fat meal) versus fasted
Format: in vivo, human
Conditions: for Vd/F: read-out: Vz/F
Experimental: Part 1 involved analysing the PK parameters obtained following single oral administration of 200 mg tablets of a compound of formula (Ia) in free base form to 12 healthy female subjects following either fed (high-fat meal) or fasted conditions.
For Part 1 • Cmax maximum plasma concentration (observed) • Tmax time to reach the maximum plasma concentration (observed) • Clast last observed quantifiable concentration in plasma • Tlast time of last observed quantifiable concentration in plasma • AUC0-last area under the plasma concentration-time curve from time 0 to the time of the last quantifiable concentration • AUCinf area under the plasma concentration-time curve from time 0 to infinite time, calculated as the sum of AUClast and Clast/kel • % AUCexp percent of AUC extrapolated between AUC0-last and AUCinf • kel apparent terminal elimination rate constant • t1/2 elimination half-life associated with the terminal slope (kel) of the semilogarithmic drug concentration-time curve, calculated as 0.693/kel • CL/F apparent total body clearance of a drug from the plasma calculated by: CL/F=Dose/AUCinf • Vz/F apparent volume of distribution at steady state calculated by: V/F=[…]
An initial dose was administered on Day 1 followed by collection of samples for PK analysis for 96 hours. PK blood samples were taken pre-dose and 0.25, 0.5, 1.0, 1.5, 2, 3, 4, 8, 10, 12, 16, 24, 36, 48, 60, 72 and 96 hours post-dose, and urine samples were taken at 0-4, 4-8, 8-12, 12-24 and 24-48 hours. Ten days after the initial dose of study drug (Day 11), a second dose of drug was administered followed by collection of PK samples. Subjects completed the End-of-Study Visit (EOS) on Day 18, 7 days after the last dose of study drug.
Subjects selected for participation checked into the clinical unit and were randomized (on the morning of Day 1) to food state for study treatment; one half received study drug in the fed state first followed by fasted state for the second dose while the other half received study drug in the fasted state first followed by fed state. Prior to dosing on Day 1, all subjects fasted for a minimum of 10 hours overnight. On the morning of Day 1, subjects dosed in the fed state received the study drug within 10 min of completing a high fat breakfast. […] Plasma and urine samples were collected as set out above for the PK analysis. Subjects remained in the clinic for study procedures and blood draws before checking out after completion of study procedures on the morning of Day 4 (i.e., 72 hours post-dose) returning for the final PK blood draw on Day 5 at 96 hr post-dose. After the first single dose of study drug, subjects completed a 10-day washout period, returning to the clinical unit for check-in on Day 10. Subjects fasted overnight, receiving the second dose of study drug in the fed or fasted state on the morning of Day 11. Subjects were discharged from the clinic after the collection of the final 72-hr PK sample returning the next day for the 96 hr blood draw.
For both Parts 1 and 2, samples were processed and analysed as follows. The method extracted Q-122 and the Internal Standard (IS, Q-122 ^13C4) from human plasma using protein precipitation extraction.
The analytes were separated by HPLC on a Phenomenex Synergi Polar-RP column, and the eluates monitored by an API4000 MS/MS detector in positive MRM mode. The extract was then assayed against a calibration curve. The data were acquired and processed by the data acquisition system Analyst® (Sciex) linked directly to the API4000 MS/MS detector and then processed in Watson LIMS™ (Thermo Scientific), where applicable. The method range is from 10.0 to 2500 ng/mL using 50 μL of matrix and has a run time of approximately 3.2 minutes per sample.
Plasma PK parameters for each dosing regimen and dose level were calculated from the concentrations of Q-122 and its major metabolites measured in pre-dose and post-dose plasma samples. […]

[1] = female, human, plasma, po, 200 mg, single oral 200 mg, fasted, mean
[2] = female, human, plasma, po, 200 mg, single oral 200 mg, fasted, median
[3] = female, human, plasma, po, 200 mg, single oral 200 mg, fed (high-fat meal), mean
[4] = female, human, plasma, po, 200 mg, single oral 200 mg, fed (high-fat meal), median
[5] = single dose 200 mg, fed versus fasted
[6] = single oral 200 mg, fasted, individual subjects
[7] = single oral 200 mg, fasted, max
[8] = single oral 200 mg, fasted, mean
[9] = single oral 200 mg, fasted, median
[10] = single oral 200 mg, fasted, min
[11] = single oral 200 mg, fed (high-fat meal), individual subjects
[12] = single oral 200 mg, fed (high-fat meal), max
[13] = single oral 200 mg, fed (high-fat meal), mean
[14] = single oral 200 mg, fed (high-fat meal), median
[15] = single oral 200 mg, fed (high-fat meal), min
[16] = single oral dose 200 mg, healthy subjects

bioavailability with a fatty meal (200 mg, with fatty meal versus fasted): increase in bioavailability | Tmax (female, human, plasma, oral, 200 mg, single dose 200 mg, fasted, subject 101009 omitted, read-out: Tmax (range over subjects)): 0.5 to 2 h | Tmax (female, human, plasma, oral, 200 mg, single dose 200 mg, fasted, read-out: Tmax (range over subjects)): 0.5 to 8 h | Tmax (female, human, plasma, oral, 200 mg, single dose 200 mg, fed, read-out: Tmax (range over subjects)): 0.5 to 10 h | AUC(0-inf) [1]: 7380 ng·h/mL | AUC(0-t) [1]: 6400 ng·h/mL | half-life [1]: 21.4 h | Cmax (female, human, plasma, po, 200 mg, single oral 200 mg, fasted, mean, read-out: Cmax): 620 ng/mL | Tmax (female, human, plasma, po, 200 mg, single oral 200 mg, fasted, mean, read-out: Tmax): 1.75 h | Vd/F [1]: 874 L | AUC(0-inf) [2]: 7390 ng·h/mL | AUC(0-t) [2]: 6330 ng·h/mL | half-life [2]: 23 h | Cmax (female, human, plasma, po, 200 mg, single oral 200 mg, fasted, median, read-out: Cmax): 613 ng/mL | Tmax (female, human, plasma, po, 200 mg, single oral 200 mg, fasted, median, read-out: Tmax): 1.25 h | Vd/F [2]: 798 L | AUC(0-t) [3]: 10200 ng·h/mL | half-life [3]: 12.3 h | Cmax (female, human, plasma, po, 200 mg, single oral 200 mg, fed (high-fat meal), mean, read-out: Cmax): 987 ng/mL | Tmax (female, human, plasma, po, 200 mg, single oral 200 mg, fed (high-fat meal), mean, read-out: Tmax): 6.23 h | Vd/F [3]: 404 L | AUC(0-inf) [4]: 11800 ng·h/mL | AUC(0-t) [4]: 11300 ng·h/mL | half-life [4]: 8.98 h | Cmax (female, human, plasma, po, 200 mg, single oral 200 mg, fed (high-fat meal), median, read-out: Cmax): 929 ng/mL | Tmax (female, human, plasma, po, 200 mg, single oral 200 mg, fed (high-fat meal), median, read-out: Tmax): 8 h | Vd/F [4]: 233 L | increase in mean AUC after food [5]: 1.6 fold | increase in mean Cmax after food [5]: 1.6 fold | Tmax [6]: 1.00 h and 1.50 h and 0.50 h | % AUCexp [7]: 30.9% | AUC0-last [7]: 9258.3 ng·h/mL | AUCinf [7]: 10317.1 ng·h/mL | Cl/F [7]: 48.87 L/h | Clast [7]: 39.70 ng/mL | Cmax [7]: 1050.00 ng/mL | Tlast [7]: 96.00 h | kel [7]: 0.059 h⁻¹ | t1/2 [7]: 32.68 h | % AUCexp [8]: 10.23% | Cl/F [8]: 29.137 L/h | Clast [8]: 20.375 ng/mL | Tlast [8]: 67.000 h | kel [8]: 0.0361 h⁻¹ | % AUCexp [9]: 9.07% | Cl/F [9]: 27.12 L/h | Clast [9]: 17.00 ng/mL | Tlast [9]: 60.00 h | kel [9]: 0.0302 h⁻¹ | % AUCexp [10]: 2.7% | AUC0-last [10]: 3631.6 ng·h/mL | AUCinf [10]: 4092.4 ng·h/mL | Cl/F [10]: 19.39 L/h | Clast [10]: 11.40 ng/mL | Cmax [10]: 103.00 ng/mL | Tlast [10]: 24.00 h | Tmax [10]: 0.50 h | kel [10]: 0.021 h⁻¹ | t1/2 [10]: 11.79 h | Tmax [11]: 0.50 h and 10.00 h | % AUCexp [12]: 7.5% | AUC0-last [12]: 14254.9 ng·h/mL | AUCinf [12]: 14389.6 ng·h/mL | Cl/F [12]: 45.22 L/h | Clast [12]: 34.20 ng/mL | Cmax [12]: 1520.00 ng/mL | Tlast [12]: 96.00 h | Tmax [12]: 10.00 h | kel [12]: 0.131 h⁻¹ | t1/2 [12]: 29.71 h | % AUCexp [13]: 2.70% | Cl/F [13]: 21.266 L/h | Clast [13]: 16.045 ng/mL | Tlast [13]: 52.364 h | kel [13]: 0.0775 h⁻¹ | % AUCexp [14]: 1.64% | Cl/F [14]: 17.00 L/h | Clast [14]: 14.70 ng/mL | Tlast [14]: 48.00 h | kel [14]: 0.0774 h⁻¹ | % AUCexp [15]: 0.8% | AUC0-last [15]: 4088.9 ng·h/mL | AUCinf [15]: 4422.3 ng·h/mL | Cl/F [15]: 13.90 L/h | Clast [15]: 10.90 ng/mL | Cmax [15]: 267.00 ng/mL | Tlast [15]: 24.00 h | Tmax [15]: 0.50 h | kel [15]: 0.023 h⁻¹ | t1/2 [15]: 5.30 h | increase of mean AUC0-inf by a high-fat meal compared to the fasted state [16]: ~45% | increase of mean Cmax by a high-fat meal compared to the fasted state [16]: about 60%
Structure (SMILES): c1cnc(NCc2ccc(CNc3ncccn3)cc2)nc1 [Q-122]
change of Cmax and AUC0-last following food (single dose 200 mg, fed versus fasted, per subject): approximately doubled in 6 out of 11 subjects | % AUCexp [6]: 4.3% and 10.3% and 9.1% (2×) and 2.7% and 13.4% and 12.6% and 11.3% and 30.9% and 5.9% and 3.1% | AUC0-last [6]: 5881.1 ng·h/mL and 9258.3 ng·h/mL and 7702.0 ng·h/mL and 8375.7 ng·h/mL and 4924.9 ng·h/mL and 5410.8 ng·h/mL and 6774.9 ng·h/mL and 3631.6 ng·h/mL and 5150.3 ng·h/mL and 9154.4 ng·h/mL and 6812.7 ng·h/mL and 3704.2 ng·h/mL | AUCinf [6]: 6144.8 ng·h/mL and 10317.1 ng·h/mL and 8470.5 ng·h/mL and 8608.7 ng·h/mL and 5415.4 ng·h/mL and 6250.2 ng·h/mL and 7756.0 ng·h/mL and 4092.4 ng·h/mL and 9726.1 ng·h/mL and 7031.1 ng·h/mL | Cl/F [6]: 32.55 L/h and 19.39 L/h and 23.61 L/h and 23.23 L/h and 36.93 L/h and 32.00 L/h and 25.79 L/h and 48.87 L/h and 20.56 L/h and 28.45 L/h | Clast [6]: 15.50 ng/mL and 26.40 ng/mL and 16.30 ng/mL (2×) and 11.70 ng/mL and 14.20 ng/mL and 22.40 ng/mL and 30.90 ng/mL and 17.70 ng/mL and 39.70 ng/mL and 11.40 ng/mL and 22.00 ng/mL | Cmax [6]: 611.00 ng/mL and 801.00 ng/mL and 676.00 ng/mL and 1010.00 ng/mL and 103.00 ng/mL and 516.00 ng/mL and 668.00 ng/mL and 403.00 ng/mL and 559.00 ng/mL and 1050.00 ng/mL and 615.00 ng/mL and 422.00 ng/mL | Tlast [6]: 48.00 h and 96.00 h (3×) and 60.00 h (5×) and 72.00 h (2×) and 24.00 h | kel [6]: 0.059 1/h and 0.025 1/h and 0.021 1/h and 0.050 1/h and 0.029 1/h (2×) and 0.027 1/h and 0.031 1/h and 0.038 1/h and 0.052 1/h | t1/2 [6]: 11.79 h and 27.80 h and 32.68 h and 13.80 h and 23.94 h and 25.98 h and 22.01 h and 18.04 h and 24.31 h and 13.28 h | % AUCexp [11]: 0.8% and 4.7% and 7.5% and 2.0% and 1.3% and 5.9% and 1.6% (2×) and 1.7% and 0.9% and 1.5% | AUC0-last [11]: 11087.2 ng·h/mL and 12782.0 ng·h/mL and 4088.9 ng·h/mL and 8498.9 ng·h/mL and 12043.9 ng·h/mL and 7713.8 ng·h/mL and 11821.5 ng·h/mL and 12551.6 ng·h/mL and 14254.9 ng·h/mL and 6505.3 ng·h/mL | AUCinf [11]: 11171.4 ng·h/mL and 13417.1 ng·h/mL and 4422.3 ng·h/mL and 12197.9 ng·h/mL and 8201.3 ng·h/mL and 11516.0 ng·h/mL and 12030.1 ng·h/mL and 12760.3 ng·h/mL and 14389.6 ng·h/mL and 6606.2 ng·h/mL | Cl/F [11]: 17.90 L/h and 14.91 L/h and 45.22 L/h and 16.40 L/h and 24.39 L/h and 17.37 L/h and 16.62 L/h and 15.67 L/h and 13.90 L/h and 30.27 L/h | Clast [11]: 11.00 ng/mL and 14.70 ng/mL and 11.20 ng/mL and 34.20 ng/mL and 15.10 ng/mL and 16.70 ng/mL and 21.50 ng/mL and 15.40 ng/mL and 13.60 ng/mL and 10.90 ng/mL and 12.20 ng/mL | Cmax [11]: 1520.00 ng/mL and 1180.00 ng/mL and 267.00 ng/mL and 797.00 ng/mL and 603.00 ng/mL and 1400.00 ng/mL and 914.00 ng/mL and 1240.00 ng/mL and 1230.00 ng/mL and 779.00 ng/mL | Tlast [11]: 36.00 h (3×) and 96.00 h (2×) and 24.00 h and 48.00 h (4×) and 60.00 h | kel [11]: 0.131 1/h and 0.023 1/h and 0.034 1/h (2×) and 0.098 1/h and 0.114 1/h and 0.074 1/h and 0.065 1/h and 0.081 1/h and 0.121 1/h | t1/2 [11]: 5.30 h and 29.71 h and 20.63 h and 7.07 h and 20.23 h and 6.08 h and 9.39 h and 10.63 h and 8.57 h and 5.73 h

From patent publication US20220133722A1, “PHARMACEUTICAL COMPOSITIONS” (QUE ONCOLOGY PTY LTD, priority 2019, published 2022)
